Data: patent US12030879B2, “Sulfonyl acetamides as NLRP3 inhibitors” (Inflazome Limited, priority 2018, dated 2024)
Counter-ions that a name gives are not always drawn.

Target: T1, NLRP3 (Homo sapiens, UniProt Q96P20)
T1 construct: Seed THP-1 cells (25,000 cells/well) containing 1.0 μg/ml LPS in 40 μl of RPMI medium; host or cells: THP-1 cells
Assay: THP-1 cells pyroptosis assay
Format: cell-based
Details: LPS 1 μg/ml, compound 3 hrs, nigericin 5 μM 1 hr, resazurin readout
Experimental: THP-1 cells (ATCC #TIB-202) were grown in RPMI containing L-glutamine (Gibco #11835) supplemented with 1 mM sodium pyruvate (Sigma #S8636) and penicillin (100 units/ml)/streptomycin (0.1 mg/ml) (Sigma #P4333) in 10% Fetal Bovine Serum (FBS) (Sigma #F0804). The cells were routinely passaged and grown to confluency (10^6 cells/ml). On the day of the experiment, THP-1 cells were harvested and resuspended into RPMI medium (without FBS). The cells were then counted and viability (>90%) checked by Trypan blue (Sigma #T8154). Appropriate dilutions were made to give a concentration of 625,000 cells/ml. To this diluted cell solution was added LPS (Sigma #L4524) to give a 1 μg/ml Final Assay Concentration (FAC). 40 μl of the final preparation was aliquoted into each well of a 96-well plate. The plate thus prepared was used for compound screening.
The following method step-by-step assay was followed for compound screening. • 1. Seed THP-1 cells (25,000 cells/well) containing 1.0 μg/ml LPS in 40 μl of RPMI medium (without FBS) in 96-well, black walled, clear bottom cell culture plates coated with poly-D-lysine (VWR #734-0317) • 2. Add 5 μl compound (8 points half-log dilution, with 10 μM top dose) or vehicle (DMSO 0.1% FAC) to the appropriate wells • 3. Incubate for 3 hrs at 37° C., 5% CO2 • 4. Add 5 μl nigericin (Sigma #N7143) (FAC 5 μM) to all wells • 5. Incubate for 1 hr at 37° C., 5% CO2 • 6. At the end of the incubation period, spin plates at 300×g for 3 mins and remove supernatant • 7. Then add 50 μl of resazurin (Sigma #R7017)(FAC 100 μM resazurin in RPMI medium without FBS) and incubate plates for a further 1-2 hrs at 37° C. and 5% CO2 • 8. Plates were read in an Envision reader at Ex 560 nm and Em 590 nm • 9. IC50 data is fitted to a non-linear regression equation (log inhibitor vs response-variable slope 4-parameters) 96-well Plate Map

T1 sequence (Q96P20 whole entry): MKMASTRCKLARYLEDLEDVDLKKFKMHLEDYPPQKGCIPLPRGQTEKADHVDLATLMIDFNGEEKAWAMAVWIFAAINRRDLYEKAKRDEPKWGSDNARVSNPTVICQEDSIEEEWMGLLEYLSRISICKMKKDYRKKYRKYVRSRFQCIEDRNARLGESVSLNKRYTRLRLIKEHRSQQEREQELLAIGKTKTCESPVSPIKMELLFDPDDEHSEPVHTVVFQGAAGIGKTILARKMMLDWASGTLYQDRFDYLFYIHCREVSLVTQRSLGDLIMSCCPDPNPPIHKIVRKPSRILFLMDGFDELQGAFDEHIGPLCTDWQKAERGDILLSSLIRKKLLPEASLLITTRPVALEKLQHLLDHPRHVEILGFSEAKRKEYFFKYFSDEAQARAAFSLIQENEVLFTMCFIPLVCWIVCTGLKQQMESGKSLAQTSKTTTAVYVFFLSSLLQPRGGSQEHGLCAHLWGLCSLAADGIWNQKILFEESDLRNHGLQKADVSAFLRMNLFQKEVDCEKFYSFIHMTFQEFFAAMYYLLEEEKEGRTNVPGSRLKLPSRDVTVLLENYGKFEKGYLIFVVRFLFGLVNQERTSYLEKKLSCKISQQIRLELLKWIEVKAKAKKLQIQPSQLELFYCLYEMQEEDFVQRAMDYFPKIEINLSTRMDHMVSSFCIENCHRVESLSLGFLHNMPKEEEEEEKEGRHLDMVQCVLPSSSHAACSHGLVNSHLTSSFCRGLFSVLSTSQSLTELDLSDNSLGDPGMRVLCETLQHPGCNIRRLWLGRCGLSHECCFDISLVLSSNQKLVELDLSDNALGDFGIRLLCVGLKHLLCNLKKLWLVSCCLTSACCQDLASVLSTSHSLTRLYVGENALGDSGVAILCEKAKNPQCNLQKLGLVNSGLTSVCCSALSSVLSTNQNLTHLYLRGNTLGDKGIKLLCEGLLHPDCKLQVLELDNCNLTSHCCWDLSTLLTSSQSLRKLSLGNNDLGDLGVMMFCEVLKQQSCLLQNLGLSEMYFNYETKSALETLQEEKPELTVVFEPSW

Row | SMILES | IC50
1 | COc1cc(-c2cc(F)cc(C(C)C)c2CC(=O)NS(=O)(=O)c2cccc(CO)c2)ccn1 [Example 38, 2-(4-Fluoro-2-isopropyl-6-(2-methoxypyridin-4-yl)phenyl)-N-((3-(hydroxymethyl)phenyl)sulfonyl)acetamide, potassium salt] | ≤ 1 µM
2 | COC(=O)c1ccc(S(=O)(=O)NC(=O)Cc2c(-c3ccnc(OC)c3)cc(F)cc2C(C)C)c(C)c1 [Example 39, Methyl 4-(N-(2-(4-fluoro-2-isopropyl-6-(2-methoxypyridin-4-yl)phenyl)acetyl)sulfamoyl)-3-methylbenzoate] | ≤ 10 µM
3 | COc1cc(-c2ccc3c(c2CC(=O)NS(=O)(=O)N(C)C2CCN(C)C2)CCC3)ccn1 (stereo not shown) [Example 55, 2-(5-(2-Methoxypyridin-4-yl)-2,3-dihydro-H-inden-4-yl)-N—(N-methyl-N-(1-methylpyrrolidin-3-yl)sulfamoyl)acetamide, potassium salt] | ≤ 5 µM
4 | CC(C)c1cc(F)cc(-c2ccncc2)c1CC(=O)NS(=O)(=O)c1cc(C(=O)N(C)C)n(C)n1 [Example 60, 3-(N-(2-(4-Fluoro-2-isopropyl-6-(pyridin-4-yl)phenyl)acetyl)sulfamoyl)-N,N,1-trimethyl-1H-pyrazole-5-carboxamide] | ≤ 5 µM
5 | CC(C)c1cc(F)cc(-c2ccncc2)c1CC(=O)NS(=O)(=O)c1ccn(C(C)(C)CN(C)C)n1 [Example 61, N-((1-(1-(Dimethylamino)-2-methylpropan-2-yl)-1H-pyrazol-3-yl)sulfonyl)-2-(4-fluoro-2-isopropyl-6-(pyridin-4-yl)phenyl)acetamide] | ≤ 5 µM
6 | COc1cc(-c2cc(F)cc(C(C)C)c2CC(=O)NS(=O)(=O)c2cc(CN(C)C)n(C)n2)ccn1 [Example 62, N-((5-((Dimethylamino)methyl)-1-methyl-1H-pyrazol-3-yl)sulfonyl)-2-(4-fluoro-2-isopropyl-6-(2-methoxypyridin-4-yl)phenyl) acetamide] | ≤ 5 µM
7 | CN(C)C(=O)c1cc(S(=O)(=O)NC(=O)Cc2c(-c3ccnc(C#N)c3)ccc3c2CCC3)nn1C [Example 65, 3-(N-(2-(5-(2-Cyanopyridin-4-yl)-2,3-dihydro-1H-inden-4-yl)acetyl)sulfamoyl)-N,N,1-trimethyl-1H-pyrazole-5-carboxamide] | ≤ 5 µM
8 | CC(C)c1cc(F)cc(-c2ccncc2)c1CC(=O)NS(=O)(=O)c1cc(CN(C)C)n(C)n1 [Example 73, N-((5-((Dimethylamino)methyl)-1-methyl-H-pyrazol-3-yl)sulfonyl)-2-(4-fluoro-2-isopropyl-6-(pyridin-4-yl)phenyl)acetamide] | ≤ 5 µM
9 | COc1cc(-c2cc(F)cc(C(C)C)c2CC(=O)NS(=O)(=O)N(C)C2CCN(C)C2)ccn1 (stereo not shown) [Example 76, 2-(4-Fluoro-2-isopropyl-6-(2-methoxypyridin-4-yl)phenyl)-N—(N-methyl-N-(1-methylpyrrolidin-3-yl)sulfamoyl)acetamide] | ≤ 5 µM
10 | COc1cc(-c2cc(F)cc(C(C)C)c2CC(=O)NS(=O)(=O)C[C@@]23CC[C@@H](C[C@H]2O)C3(C)C)ccn1 [Example 77, 2-(4-Fluoro-2-isopropyl-6-(2-methoxypyridin-4-yl)phenyl)-N-((((1R,2R,4S)-2-hydroxy-7,7-dimethylbicyclo[2.2.1]heptan-1-yl)methyl)sulfonyl)acetamide] | ≤ 5 µM
11 | COc1cc(-c2cc(F)cc(C(C)C)c2CC(=O)NS(=O)(=O)CCCC(C)(C)O)ccn1 [Example 78, 2-(4-Fluoro-2-isopropyl-6-(2-methoxypyridin-4-yl)phenyl)-N-((4-hydroxy-4-methylpentyl)sulfonyl)acetamide] | ≤ 10 µM
12 | COc1cc(-c2cc(F)cc(C(C)C)c2CC(=O)NS(=O)(=O)c2ccc(F)c(C(C)(C)O)c2)ccn1 [Example 79, 2-(4-Fluoro-2-isopropyl-6-(2-methoxypyridin-4-yl)phenyl)-N-((4-fluoro-3-(2-hydroxypropan-2-yl)phenyl)sulfonyl)acetamide] | ≤ 1 µM
13 | COc1cc(-c2cc(F)cc(C(C)C)c2CC(=O)NS(=O)(=O)c2ccc(C(C)(C)O)cc2)ccn1 [Example 80, 2-(4-Fluoro-2-isopropyl-6-(2-methoxypyridin-4-yl)phenyl)-N-((4-(2-hydroxypropan-2-yl)phenyl)sulfonyl)acetamide] | ≤ 5 µM
14 | COc1cc(-c2cc(F)cc(C(C)C)c2CC(=O)NS(=O)(=O)c2ccc(C(C)(C)O)c(F)c2)ccn1 [Example 84, 2-(4-Fluoro-2-isopropyl-6-(2-methoxypyridin-4-yl)phenyl)-N-((3-fluoro-4-(2-hydroxypropan-2-yl)phenyl)sulfonyl)acetamide] | ≤ 1 µM

The remaining lines, values ahead:

Row | IC50 | SMILES
15 | ≤ 5 µM | COc1cc(-c2cc(F)cc(C(C)C)c2CC(=O)NS(=O)(=O)c2ccc(C#N)cc2C)ccn1 [Example 37, N-((4-Cyano-2-methylphenyl)sulfonyl)-2-(4-fluoro-2-isopropyl-6-(2-methoxypyridin-4-yl)phenyl)acetamide]
16 | ≤ 0.5 µM | COc1cc(-c2cc(F)cc(C(C)C)c2CC(=O)NS(=O)(=O)c2cc(C(C)(C)O)co2)ccn1 [Example 40, 2-(4-Fluoro-2-isopropyl-6-(2-methoxypyridin-4-yl)phenyl)-N-((4-(2-hydroxypropan-2-yl)furan-2-yl)sulfonyl)acetamide]
17 | ≤ 10 µM | COc1cc(-c2cc(F)cc(C(C)C)c2CC(=O)NS(=O)(=O)C(C)c2ccccc2)ccn1 (stereo not shown) [Example 41, 2-(4-Fluoro-2-isopropyl-6-(2-methoxypyridin-4-yl)phenyl)-N-((1-phenylethyl)sulfonyl)acetamide]
18 | ≤ 10 µM | COc1cc(-c2cc(F)cc(C(C)C)c2CC(=O)NS(=O)(=O)c2cnn(C)c2)ccn1 [Example 42, 2-(4-Fluoro-2-isopropyl-6-(2-methoxypyridin-4-yl)phenyl)-N-((1-methyl-1H-pyrazol-4-yl)sulfonyl)acetamide]
19 | ≤ 5 µM | COc1cc(-c2cc(F)cc(C(C)C)c2CC(=O)NS(=O)(=O)c2ccc(C(C)=O)cc2)ccn1 [Example 43, N-((4-Acetylphenyl)sulfonyl)-2-(4-fluoro-2-isopropyl-6-(2-methoxypyridin-4-yl)phenyl)acetamide]
20 | ≤ 10 µM | CCN(CC)CCCS(=O)(=O)NC(=O)Cc1c(-c2ccnc(OC)c2)ccc2c1CCC2 [Example 56, N-((3-(Diethylamino)propyl)sulfonyl)-2-(5-(2-methoxypyridin-4-yl)-2,3-dihydro-1H-inden-4-yl)acetamide]
21 | ≤ 5 µM | CCN(CC)CCCS(=O)(=O)NC(=O)Cc1c(-c2ccnc(OC)c2)cc(F)cc1C(C)C [Example 57, N-((3-(Diethylamino)propyl)sulfonyl)-2-(4-fluoro-2-isopropyl-6-(2-methoxypyridin-4-yl)phenyl)acetamide, potassium salt]
22 | ≤ 1 µM | COc1cc(-c2cc(F)cc(C(C)C)c2CC(=O)NS(=O)(=O)c2cc(C(=O)N(C)C)n(C)n2)ccn1 [Example 58, 3-(N-(2-(4-Fluoro-2-isopropyl-6-(2-methoxypyridin-4-yl)phenyl)acetyl)sulfamoyl)-N,N,1-trimethyl-1H-pyrazole-5-carboxamide]
23 | ≤ 5 µM | CC(C)c1cc(F)cc(-c2cccnc2)c1CC(=O)NS(=O)(=O)c1cc(C(=O)N(C)C)n(C)n1 [Example 59, 3-(N-(2-(4-Fluoro-2-isopropyl-6-(pyridin-3-yl)phenyl)acetyl)sulfamoyl)-N,N,1-trimethyl-1H-pyrazole-5-carboxamide]
24 | ≤ 10 µM | COc1cc(-c2ccc3c(c2CC(=O)NS(=O)(=O)c2cc(C(=O)N(C)C)n(C)n2)CCC3)ccn1 [Example 64, 3-(N-(2-(5-(2-Methoxypyridin-4-yl)-2,3-dihydro-1H-inden-4-yl)acetyl)sulfamoyl)-N,N,1-trimethyl-1H-pyrazole-5-carboxamide]
25 | ≤ 10 µM | COc1cc(-c2cc(F)cc(C(C)C)c2CC(=O)NS(=O)(=O)C[C@]23CCC(CC2=O)C3(C)C)ccn1 [Example 75]
26 | ≤ 5 µM | COc1cc(-c2cc(F)cc(C(C)C)c2CC(=O)NS(=O)(=O)c2cccc(C(C)(C)C#N)c2)ccn1 [Example 81, N-((3-(2-Cyanopropan-2-yl)phenyl)sulfonyl)-2-(4-fluoro-2-isopropyl-6-(2-methoxypyridin-4-yl)phenyl)acetamide]
27 | ≤ 5 µM | Cc1cc(C(C)(C)O)ccc1S(=O)(=O)NC(=O)Cc1c(-c2cccnc2)cc(F)cc1C(C)C [Example 82, 2-(4-Fluoro-2-isopropyl-6-(pyridin-3-yl)phenyl)-N-((4-(2-hydroxypropan-2-yl)-2-methylphenyl)sulfonyl)acetamide]
28 | ≤ 5 µM | COc1cc(-c2cc(F)cc(C(C)C)c2CC(=O)NS(=O)(=O)c2ccc(C(C)(C)N)c(F)c2)ccn1 [Example 83, N-((4-(2-Aminopropan-2-yl)-3-fluorophenyl)sulfonyl)-2-(4-fluoro-2-isopropyl-6-(2-methoxypyridin-4-yl)phenyl)acetamide]
